Laboratory results reported in patent publication US10695337B2, “Piperidin-4-yl azetidine derivatives as JAK1 inhibitors” (Incyte Corporation, priority 2010, dated 2020).

Target: human JAK1 (a.a. 837-1142)
Test: In vitro JAK kinase assay (HTRF, phosphorylation of a biotinylated peptide), JAK1
Assay type: biochemical
Settings: measured at 1 mM ATP; JAK2 IC50 / JAK1 IC50
Procedure, shortened: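 Phosphorylation of a biotinylated peptide by purified His-tagged JAK catalytic domains (insect-cell baculovirus expression) ran 1 hr at room temperature. After stopping with EDTA, Eu-Py20 and SA-APC were bound for 40 minutes and HTRF measured.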

Compound	IC50 Ratio JAK2/JAK1
N#CCC1(n2cc(-c3ncnc4[nH]ccc34)cn2)CN(C2CCN(Cc3ccc(C#N)c(F)c3)CC2)C1 [Example 229, 4-[(4-{3-(cyanomethyl)-3-[4-(7H-pyrrolo[2,3-d]pyrimidin-4-yl)-1H-pyrazol-1-yl]azetidin-1-yl}piperidin-1-yl)methyl]-2-fluorobenzonitrile]	6.4
Cc1onc(-c2ccccc2)c1CN1CCC(N2CC(CC#N)(n3cc(-c4ncnc5[nH]ccc45)cn3)C2)CC1 [Example 230, {1-{1-[(5-methyl-3-phenylisoxazol-4-yl)methyl]piperidin-4-yl}-3-[4-(7H-pyrrolo[2,3-d]pyrimidin-4-yl)-1H-pyrazol-1-yl]azetidin-3-yl}acetonitrile]	9.3
N#CCC1(n2cc(-c3ncnc4[nH]ccc34)cn2)CN(C2CCN(Cc3ccnc(C(F)(F)F)c3F)CC2)C1 [Example 231, {1-(1-{[3-fluoro-2-(trifluoromethyl)pyridin-4-yl]methyl}piperidin-4-yl)-3-[4-(7H-pyrrolo[2,3-d]pyrimidin-4-yl)-1H-pyrazol-1-yl]azetidin-3-yl}acetonitrile]	5.1
N#CCC1(n2cc(-c3ncnc4[nH]ccc34)cn2)CN(C2CCN(Cc3cc4ccccc4o3)CC2)C1 [Example 232, {1-[1-(1-benzofuran-2-ylmethyl)piperidin-4-yl]-3-[4-(7H-pyrrolo[2,3-d]pyrimidin-4-yl)-1H-pyrazol-1-yl]azetidin-3-yl}acetonitrile]	0.7
N#CCC1(n2cc(-c3ncnc4[nH]ccc34)cn2)CN(C2CCN(Cc3cccc(Oc4ccccc4)c3)CC2)C1 [Example 233, {1-[1-(3-phenoxybenzyl)piperidin-4-yl]-3-[4-(7H-pyrrolo[2,3-d]pyrimidin-4-yl)-1H-pyrazol-1-yl]azetidin-3-yl}acetonitrile]	2.2
N#CCC1(n2cc(-c3ncnc4[nH]ccc34)cn2)CN(C2CCN(Cc3ccc4c(c3)OCCO4)CC2)C1 [Example 234, {1-[1-(2,3-dihydro-1,4-benzodioxin-6-ylmethyl)piperidin-4-yl]-3-[4-(7H-pyrrolo[2,3-d]pyrimidin-4-yl)-1H-pyrazol-1-yl]azetidin-3-yl}acetonitrile]	4.2
N#CCC1(n2cc(-c3ncnc4[nH]ccc34)cn2)CN(C2CCN(Cc3c(C(F)(F)F)ccc(Cl)c3F)CC2)C1 [Example 236, {1-{1-[3-chloro-2-fluoro-6-(trifluoromethyl)benzyl]piperidin-4-yl}-3-[4-(7H-pyrrolo[2,3-d]pyrimidin-4-yl)-1H-pyrazol-1-yl]azetidin-3-yl}acetonitrile]	5.5
N#CCC1(n2cc(-c3ncnc4[nH]ccc34)cn2)CN(C2CCN(Cc3c(Cl)cncc3Cl)CC2)C1 [Example 237, {1-{1-[(3,5-dichloropyridin-4-yl)methyl]piperidin-4-yl}-3-[4-(7H-pyrrolo[2,3-d]pyrimidin-4-yl)-1H-pyrazol-1-yl]azetidin-3-yl}acetonitrile]	2.3
COc1ccc2nc(Cl)c(CN3CCC(N4CC(CC#N)(n5cc(-c6ncnc7[nH]ccc67)cn5)C4)CC3)cc2c1 [Example 238, {1-{1-[(2-chloro-6-methoxyquinolin-3-yl)methyl]piperidin-4-yl}-3-[4-(7H-pyrrolo[2,3-d]pyrimidin-4-yl)-1H-pyrazol-1-yl]azetidin-3-yl}acetonitrile]	6.8
COc1ccc(CN2CCC(N3CC(CC#N)(n4cc(-c5ncnc6[nH]ccc56)cn4)C3)CC2)c(Cl)c1OC [Example 239, {1-[1-(2-chloro-3,4-dimethoxybenzyl)piperidin-4-yl]-3-[4-(7H-pyrrolo[2,3-d]pyrimidin-4-yl)-1H-pyrazol-1-yl]azetidin-3-yl}acetonitrile]	2.3
N#CCC1(n2cc(-c3ncnc4[nH]ccc34)cn2)CN(C2CC3CCC(C2)N3Cc2c(F)ccc(F)c2Cl)C1 (centres unmarked) [Example 241, {1-[8-(2-Chloro-3,6-difluorobenzyl)-8-azabicyclo[3.2.1]oct-3-yl]-3-[4-(7H-pyrrolo[2,3-d]pyrimidin-4-yl)-1H-pyrazol-1-yl]azetidin-3-yl}acetonitrile]	3.8
